Patent US20040063670A1, “Use of bisphosphonates for pain treatment” (priority 2000, published 2004)

Tests used:
Assay type in all cases: in vivo
[1] = tested on: rat model of neuropathic pain; assay: Neuropathic mechanical hyperalgesia (partial ligation of the left sciatic nerve)
Method: Mechanical hyperalgesia was examined in a rat model of neuropathic pain induced by partial ligation of the left sciatic nerve. Approximately 14 days following surgery mechanical withdrawal thresholds of both the ligated (ipsilateral) and non-ligated (contralateral) paw were measured prior to (predose) and then from 10 min to 6 h following drug or vehicle administration. Reversal of hyperalgesia at each time point was calculated according to the formula: [formula]
(§1) All experiments were carried out using groups of 6 animals. Stock concentrations of drugs were dissolved in distilled water and subsequent dilutions were made in 0.9% saline for subcutaneous administration in a volume of 4 mlkg^−1. All drugs were made up in plastic vials and kept in the dark.
(§2) Statistical analysis was carried out on withdrawal threshold readings (g) using ANOVA with repeated measures followed by Tukey's HSD test. Efficacy refers to the maximal reversal of hyperalgesia observed at the doses used.

[2] = tested on: rat model of inflammatory pain; assay: Inflammatory mechanical hyperalgesia (FCA, Randal-Sellito paw withdrawal threshold); settings: for maximal reversal of mechanical hyperalgesia: ipsilateral paw, 24 h after FCA
Method: Mechanical hyperalgesia was examined in a rat model of inflammatory pain. Paw withdrawal thresholds to an increasing pressure stimulus were measured by the Randal-Sellito technique using an analgesymeter (Ugo Basile, Milan), in naïve animals prior to an intraplantar injection of complete Freund's complete adjuvant (FCA) into the left hind paw. 24 h later paw withdrawal thresholds were measured again prior to (predose) and then from 10 min to 6 h following drug or vehicle administration. Reversal of hyperalgesia in the ipsilateral paw was calculated according to the formula: [formula]
as §1, §2

[3] = tested on: rat model of bone cancer pain; assay: Rat model of bone cancer pain (intra-tibial MRMZ1 mammary gland carcinoma cells)
Method: Adult female rats were given intra-tibial injections of MRMZ1 rat mammary gland carcinoma cells (3 μl, 10^7 cells/ml). These animals gradually developed mechanical hyperalgesia, mechanical allodynia (skin sensitivity to non-noxious stimuli) and hind limb sparing, beginning on day 12-14 following cell injection.

[4] = 10 and 30 μg/kg s.c. 3 times a week from the day of cell injection

SMILES: O=P(O)(O)C(Cl)(Cl)P(=O)(O)O [Clodronate, 1,1-dichloromethane-1,1-diphosphonic acid]
- activity in the model of neuropathic pain (reversal of hyperalgesia) ([1]; 0.3-10 mgkg^−1 s.c.): inactive
- contralateral paw withdrawal thresholds ([1]; 0.3-10 mgkg^−1 s.c.): some reductions
- reversing inflammatory mechanical hyperalgesia ([2]; 0.3-10 mgkg^−1 s.c.): ineffective
- paw withdrawal thresholds ([2]; highest dose tested of 0.3-10 mgkg^−1 s.c.): slight reductions

SMILES: NCCC(O)(P(=O)(O)O)P(=O)(O)O [Pamidronate, 3-amino-1-hydroxypropane-1,1-diphosphonic acid]
- contralateral paw withdrawal thresholds ([1]; 0.03-1 mgkg^−1 s.c.): some reductions
- maximal reversal of hyperalgesia ([1]; 0.03-1 mgkg^−1 s.c.): 20%
- reversing inflammatory mechanical hyperalgesia ([2]; 0.03-1 mgkg^−1 s.c.): ineffective
- paw withdrawal thresholds ([2]; highest dose tested of 0.03-1 mgkg^−1 s.c.): slight reductions

SMILES: O=P(O)(O)C(O)(Cn1ccnc1)P(=O)(O)O [Zoledronate, 1-hydroxy-2-(imidazol-1-yl)ethane-1,1-diphosphonic acid]
- hind limb sparing [3, 4]: profound inhibition
- mechanical allodynia [3, 4]: profound inhibition
- development of hind limb sparing over 19 days ([3]; higher dose (30 μg/kg s.c. 3 times a week), 19 days following intra-tibial cell injection): did not develop any sign of hind limb sparing
- acute effect of a single injection ([3]; single injection 100 μg/kg s.c. on day 19): no acute effect
- time to maximal reversal of mechanical hyperalgesia ([1]; 0.003-0.1 mgkg^−1 s.c.): ≤ 30 min
- reversal of mechanical hyperalgesia (maximal) ([1]; 0.003-0.1 mgkg^−1 s.c., about 14 days after surgery): 40%
- contralateral paw withdrawal thresholds ([1]; highest dose of 0.003-0.1 mgkg^−1 s.c.): significant reduction
- time to maximal reversal of mechanical hyperalgesia ([2]; 0.003-0.1 mgkg^−1 s.c.): ≤ 30 min
- activity 3 h following administration (duration) ([2]; 0.003-0.1 mgkg^−1 s.c., 3 h after administration): no significant activity
- maximal reversal of mechanical hyperalgesia ([2]; 0.003-0.1 mgkg^−1 s.c.): 100%
- maximal reversal of mechanical hyperalgesia ([2]; 0.003-0.1 mgkg^−1 s.c., listed as zoledronic acid): about 100%
- contralateral activity ([2]; highest dose of 0.003-0.1 mgkg^−1 s.c., contralateral paw): Some contralateral activity

SMILES: CN1CC[C@]23c4c5ccc(O)c4O[C@H]2[C@@H](O)C=C[C@H]3[C@H]1C5 [morphine]
- mechanical allodynia ([3]; acute treatment, 1-10 mg/kg s.c.): dose dependent reduction
- hind limb sparing ([3]; acute treatment, highest dose only (of 1-10 mg/kg s.c.)): significant reduction
